The values below come from patent publication US9364543B2, “Visible light curable hydrogels and methods for using” (Indiana University Research and Technology Corporation, priority 2012, dated 2016).

Where two headings read alike, the source gives them in different places. A value given as a limit tells only on which side of the number the result lay.

The conditions of data set [1]: cited from earlier work.
For data set [2] the following is noted: cited from earlier work. This is another data set of the same source.
Data set [3] is described as follows: Eosin-Y release and retention in thiol-ene hydrogels. The note with it: for eosin-Y retention in thiol-ene hydrogels: after 48 hours of swelling. The class given is physicochemical. As for the experimental part: EXAMPLE. Eosin-Y retention: PEG4NB-DTT hydrogel discs (8 mm in diameter and 1 mm in height) are fabricated. Immediately after polymerization, each hydrogel (8 mm in diameter and 1 mm in height) is immersed into a scintillation vial containing 2 mL of ddH2O. Three separate samples are prepared per experimental condition. These scintillation vials are capped tightly and stored at 37° C. on an orbital shaker. At specific time points, these vials are swirled manually to ensure homogeneous mix and 200 μL of solution is transferred to a well of a transparent 96-well plate. The buffer is changed at every time point. The absorbance (at 515 nm) of the collected samples is determined using a microplate reader (Biotek). Eosin-Y retention was calculated by generating a standard curve prepared from a series of known eosin-Y concentrations (0.02 mM being the highest).

[4] abbreviates: post-gelation, pH 7.4 PBS, FIG. 10.

Regarding `CC(C)(O)C(=O)c1ccc(OCCO)cc1` [I-2959], in data set [1], the water solubility is given as less than 0.5 wt %. The “molar absorptivity (ε)” value in data set [2] (at 365 nm) is less than 10 M⁻¹ cm⁻¹.
As to `Cc1cc(C)c(C(=O)P(=O)([O-])c2ccccc2)c(C)c1.[Li+]` [LAP, lithium arylphosphinate], in data set [1], the water solubility is on record as greater than 5 wt %. In addition, the entries for the “molar absorptivity (ε)” value in data set [2] (at 365 nm) and in data set [2] (at 405 nm) were roughly 200 M⁻¹ cm⁻¹ and roughly 30 M⁻¹ cm⁻¹, respectively.
As to `O=C([O-])c1ccccc1-c1c2cc(Br)c(=O)c(Br)c-2oc2c(Br)c([O-])c(Br)cc12.[Na+].[Na+]` [eosin-Y, Eosin-Y disodium salt], in data set [3] (setting [4]), the “time in which most of the eosin-Y was released from the hydrogel” value worked out at 0.5 h and the “time to complete release of eosin-Y from the hydrogel” value came to 6 h. Further, the “eosin-Y retention in thiol-ene hydrogels” value in data set [3] (starting eosin-Y concentration 0.1 mM) was roughly 0.004 µmol. Also, in data set [3] (starting eosin-Y concentration 2.0 mM), the “eosin-Y retention in thiol-ene hydrogels” value was roughly 0.03 µmol.
